# Measured values published in patent US20230322846A9, “NEUROACTIVE STEROIDS AND THEIR METHODS OF USE” (SAGE THERAPEUTICS, INC., priority 2018, published 2023).
# Biological target: [35S]-TBPS binding, rat brain cortical membranes
# Assay: Steroid inhibition of [35S]-TBPS binding
# Conditions: 3 nM [35S]-TBPS, in the presence of 5 mM GABA
# Outline: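 Rat cortical P2 membranes incubated 90 min at room temperature with 3 nM [35S]-TBPS, […] and test compound (0.5% DMSO final) in NaCl/Na–K phosphate pH 7.4; nonspecific binding with […]. Filter-bound radioactivity counted; IC50 and Imax from nonlinear fits, mean ± SEM.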
row,Compound,IC50
1,"CCOC[C@@]1(O)CC[C@@]2(C)[C@H](CC[C@@H]3[C@@H]2CC[C@]2(C)[C@@H]([C@@H](C)NS(=O)(=O)c4ccc(C#N)cn4)CC[C@@H]32)C1 [Example 77, 5-cyano-N—((R)-1-((3R,5R,8R,9S,10S,13S,14S,17S)-3-(ethoxymethyl)-3-hydroxy-10,13-dimethylhexadecahydro-1H-cyclopenta[a]phenanthren-17-yl)ethyl)pyridine-2-sulfonamide]",< 100 nM
2,"CCOC[C@@]1(O)CC[C@@]2(C)[C@H](CC[C@@H]3[C@@H]2CC[C@]2(C)[C@@H]([C@@H](C)N(C)S(=O)(=O)c4ccc(C#N)cn4)CC[C@@H]32)C1 [Example 78, 5-cyano-N—((R)-1-((3R,5R,8R,9S,10S,13S,14S,17S)-3-(ethoxymethyl)-3-hydroxy-10,13-dimethylhexadecahydro-1H-cyclopenta[a]phenanthren-17-yl)ethyl)-N-methylpyridine-2-sulfonamide]",< 100 nM
3,"COC[C@@]1(O)CC[C@H]2[C@H](CC[C@@H]3[C@@H]2CC[C@]2(C)[C@@H](CCn4ccc(C#N)n4)CC[C@@H]32)C1 [Example 87, 1-(2-((3R,5R,8R,9R,10S,13R,14S,17R)-3-hydroxy-3-(methoxymethyl)-13-methylhexadecahydro-1H-cyclopenta[a]phenanthren-17-yl)ethyl)-1H-pyrazole-3-carbonitrile]",< 100 nM
4,"COC[C@@]1(O)CC[C@H]2[C@H](CC[C@@H]3[C@@H]2CC[C@]2(C)[C@@H](CCn4nccc4C#N)CC[C@@H]32)C1 [Example 88, 1-(2-((3R,5R,8R,9R,10S,13R,14S,17R)-3-hydroxy-3-(methoxymethyl)-13-methylhexadecahydro-1H-cyclopenta[a]phenanthren-17-yl)ethyl)-1H-pyrazole-5-carbonitrile]",< 100 nM
5,"CCC[C@@]1(O)CC[C@H]2[C@H](CC[C@@H]3[C@@H]2CC[C@]2(C)[C@@H]([C@@H](C)Nc4ccc(C#N)cn4)CC[C@@H]32)C1 [Example 90, 6-(((R)-1-((3R,5R,8R,9R,10S,13S,14S,17S)-3-hydroxy-13-methyl-3-propylhexadecahydro-1H-cyclopenta[a]phenanthren-17-yl)ethyl)amino)nicotinonitrile]",100 to 1000 nM
6,"CCC[C@@]1(O)CC[C@H]2[C@H](CC[C@@H]3[C@@H]2CC[C@]2(C)[C@@H]([C@@H](C)Nc4ccc(-n5ccc(C)n5)nc4C)CC[C@@H]32)C1 [Example 91, (3R,5R,8R,9R,10S,13S,14S,17S)-13-methyl-17-((R)-1-((2-methyl-6-(3-methyl-1H-pyrazol-1-yl)pyridin-3-yl)amino)ethyl)-3-propylhexadecahydro-1H-cyclopenta[a]phenanthren-3-ol]",100 to 1000 nM
7,"COC[C@@]1(O)CC[C@H]2[C@H](CC[C@@H]3[C@@H]2CC[C@]2(C)[C@@H]([C@@H](C)Cn4cc(C#N)cn4)CC[C@@H]32)C1 [Example 92, 1-((R)-2-((3R, 5R, 8R, 9R, 10S, 13S, 14S, 17R)-3-hydroxy-3-(methoxymethyl)-13-methylhexadecahydro-1H-cyclopenta[a]phenanthren-17-yl)propyl)-1H-pyrazole-4-carbonitrile]",< 100 nM
8,C[C@@H](NC(=O)c1ccccn1)[C@H]1CC[C@H]2[C@@H]3CC[C@@H]4C[C@](C)(O)CC[C@@H]4[C@H]3CC[C@]12C [Example 100],100 to 1000 nM
9,C[C@H](NC(=O)c1ccccn1)[C@H]1CC[C@H]2[C@@H]3CC[C@@H]4C[C@](C)(O)CC[C@@H]4[C@H]3CC[C@]12C [Example 101],1000 to 10000 nM
10,C[C@H](NC(=O)c1ccccc1F)[C@H]1CC[C@H]2[C@@H]3CC[C@@H]4C[C@](C)(O)CC[C@@H]4[C@H]3CC[C@]12C [Example 102],1000 to 10000 nM
11,C[C@@H](NC(=O)c1ccccc1F)[C@H]1CC[C@H]2[C@@H]3CC[C@@H]4C[C@](C)(O)CC[C@@H]4[C@H]3CC[C@]12C [Example 103],< 100 nM
12,COc1cccc(C(=O)N[C@H](C)[C@H]2CC[C@H]3[C@@H]4CC[C@@H]5C[C@](C)(O)CC[C@@H]5[C@H]4CC[C@]23C)c1 [Example 104],< 100 nM
13,COc1cccc(C(=O)N[C@@H](C)[C@H]2CC[C@H]3[C@@H]4CC[C@@H]5C[C@](C)(O)CC[C@@H]5[C@H]4CC[C@]23C)c1 [Example 105],1000 to 10000 nM
14,COc1ccc(C(=O)N[C@H](C)[C@H]2CC[C@H]3[C@@H]4CC[C@@H]5C[C@](C)(O)CC[C@@H]5[C@H]4CC[C@]23C)cc1 [Example 106],100 to 1000 nM
15,COc1ccc(C(=O)N[C@@H](C)[C@H]2CC[C@H]3[C@@H]4CC[C@@H]5C[C@](C)(O)CC[C@@H]5[C@H]4CC[C@]23C)cc1 [Example 107],1000 to 10000 nM
16,C[C@@H](NC(=O)c1ccc(C#N)cc1)[C@H]1CC[C@H]2[C@@H]3CC[C@@H]4C[C@](C)(O)CC[C@@H]4[C@H]3CC[C@]12C [Example 108],100 to 1000 nM
17,C[C@@H](NC(=O)c1cccc(C#N)c1)[C@H]1CC[C@H]2[C@@H]3CC[C@@H]4C[C@](C)(O)CC[C@@H]4[C@H]3CC[C@]12C [Example 109],< 100 nM
18,C[C@H](NC(=O)c1cccc(C#N)c1)[C@H]1CC[C@H]2[C@@H]3CC[C@@H]4C[C@](C)(O)CC[C@@H]4[C@H]3CC[C@]12C [Example 110],1000 to 10000 nM
19,COC[C@@]1(O)CC[C@H]2[C@H](CC[C@@H]3[C@@H]2CC[C@]2(C)[C@@H]([C@@H](C)NC(=O)c4ccc(OC(F)(F)F)cc4)CC[C@@H]32)C1 [Example 111],< 100 nM
20,COC[C@@]1(O)CC[C@H]2[C@H](CC[C@@H]3[C@@H]2CC[C@]2(C)[C@@H]([C@H](C)NC(=O)c4ccc(OC(F)(F)F)cc4)CC[C@@H]32)C1 [Example 112],100 to 1000 nM
21,COC[C@@]1(O)CC[C@H]2[C@H](CC[C@@H]3[C@@H]2CC[C@]2(C)[C@@H]([C@@H](C)NC(=O)c4ccc(F)cc4)CC[C@@H]32)C1 [Example 113],100 to 1000 nM
22,COC[C@@]1(O)CC[C@H]2[C@H](CC[C@@H]3[C@@H]2CC[C@]2(C)[C@@H]([C@H](C)NC(=O)c4ccc(F)cc4)CC[C@@H]32)C1 [Example 114],1000 to 10000 nM
23,C[C@H](NC(=O)c1ccc(C#N)cc1)[C@H]1CC[C@H]2[C@@H]3CC[C@@H]4C[C@](C)(O)CC[C@@H]4[C@H]3CC[C@]12C [Example 115],1000 to 10000 nM
24,C[C@@H](NC(=O)c1ccc(F)cc1)[C@H]1CC[C@H]2[C@@H]3CC[C@@H]4C[C@](C)(O)CC[C@@H]4[C@H]3CC[C@]12C [Example 116],< 100 nM
25,C[C@H](NC(=O)c1ccc(F)cc1)[C@H]1CC[C@H]2[C@@H]3CC[C@@H]4C[C@](C)(O)CC[C@@H]4[C@H]3CC[C@]12C [Example 117],1000 to 10000 nM
26,COC[C@@]1(O)CC[C@H]2[C@H](CC[C@@H]3[C@@H]2CC[C@]2(C)[C@@H]([C@@H](C)NC(=O)c4cc(C)nn4C)CC[C@@H]32)C1 [Example 118],100 to 1000 nM
